Source: the supplement of paper PMC11208160

assay: recombinant UMI read abundance after kanamycin selection (control-corrected) (log10(CPM+1)); higher = more efficient recombination; extreme values may be limits of the assay; sequences stand for … in AGTGCAGAGAAAATCGGCCAGTTTTCTCTGCCTGCAGTCCGCATGCCGTGGGACCCCTTGGGTTCTAACCTGTTGCCTAGATTTATGCAGCGGACTGCCTTTCTCCCAAAGTGATAAACCGG…AGGTTGGTTTCACT; site = the 11-nt donor
Outline: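 Under IPTG (0.07 mM) plus kanamycin, or without selection, Escherichia coli carrying a UMI-tagged donor and donor-binding-loop pair library and a target plasmid for the IS621 bridge recombinase were plated in two replicates. Recombinant UMIs were PCR-amplified across the donor–target junction and sequenced. Counts were converted to CPM, averaged over replicates, scaled by control-derived factors and reported as log10(CPM+1).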
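Further: IS621 bridge recombinase in Escherichia coli cells against a fixed T5 target plasmid.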

“CAATTCCCATGGACCGGTTTTCCCGGTAATCCGTATTTGCT (site CAATTCACTAG)” and “CAATTCCCATGGACCGGTTTTCCCGGTAATCCGTATTTGCT (site CAATTCCCTAA)” are within 0.2 log units of each other in “recombinant UMI read abundance (log10)” value: 0 for the first, 0.188 for the second.

Going from “CAATTCCCATGGACCGGTTTTCCCGGTAATCCGTATTTGCT (site CAATTCCCTAC)” to “CAATTCCCATGGACCGGTTTTCCCGGTAATCCGTATTTGCT (site CAATTCCCTAG)”, the “recombinant UMI read abundance (log10)” value rises from 0.184 to 0.879.

Compared with “CAATTCCCATGGACCGGTTTTCCCGGTAATCCGTATTTGCT (site CAATTCCCTAT)”, “CAATTCCCATGGACCGGTTTTCCCGGTAATCCGTATTTGCT (site CAATTCCCTCG)” is lower in “recombinant UMI read abundance (log10)” value: 1.61 for the first, 0.178 for the second.

First: CAATTCCCATGGACCGGTTTTCCCGGTAATCCGTATTTGCT (site CAATTCCCTGG)
Second: CAATTCCCATGGACCGGTTTTCCCGGTAATCCGTATTTGCT (site CAATTCCCTTG)
The “recombinant UMI read abundance (log10)” value of the first is lower: 0 for the first, 0.615 for the second.

First: CAATTCCCATGGACCGGTTTTCCCGGTAATCCGTATTTGCT (site CAATTCGCTAG)
Second: CAATTCCCATGGACCGGTTTTCCCGGTAATCCGTATTTGCT (site CAATTCTCTAG)
The “recombinant UMI read abundance (log10)” value of the first is lower: 0.00609 for the first, 2.13 for the second.

“CAATTCCCATGGACCGGTTTTCCCGGTAATCCGTATTTGCT (site CAATTGCCTAG)” and “CAATTCCCATGGACCGGTTTTCCCGGTAATCCGTATTTGCT (site CAATTTCCTAG)” are the same in “recombinant UMI read abundance (log10)” value: 0 for the first, 0 for the second.

“CAATTCCCATGGACCGGTTTTCCCGGTAATCCGTATTTGCT (site CACTTCCCTAG)” and “CAATTCCCATGGACCGGTTTTCCCGGTAATCCGTATTTGCT (site CAGTTCCCTAG)” are within 0.2 log units of each other in “recombinant UMI read abundance (log10)” value: 0.171 for the first, 0 for the second.

Compared with “CAATTCCCATGGACCGGTTTTCCCGGTAATCCGTATTTGCT (site CATTTCCCTAG)”, “CAATTCCCATGGACCGGTTTTCCCGGTAATCCGTATTTGCT (site CCATTCCCTAG)” is higher in “recombinant UMI read abundance (log10)” value: 0 for the first, 1.17 for the second.

“CAATTCCCATGGACCGGTTTTCCCGGTAATCCGTATTTGCT (site CGATTCCCTAG)” and “CAATTCCCATGGACCGGTTTTCCCGGTAATCCGTATTTGCT (site CTATTCCCTAG)” are the same in “recombinant UMI read abundance (log10)” value: 0 for the first, 0 for the second.

First: CAATTCCCATGGACCGGTTTTCCCGGTAATCCGTATTTGCT (site GAATTCCCTAG)
Second: CAATTCCCATGGACCGGTTTTCCCGGTAATCCGTATTTGCT (site TAATTCCCTAG)
The “recombinant UMI read abundance (log10)” value of the first is lower: 0 for the first, 0.428 for the second.

Going from “CAATTCGCATGGACCGGTTTTCCCGGTAATCCGTATTTGCT (site CAATTCACTAG)” to “CAATTCGCATGGACCGGTTTTCCCGGTAATCCGTATTTGCT (site CAATTCCCTAG)”, the “recombinant UMI read abundance (log10)” value falls from 1.08 to 0.

Compared with “CAATTCGCATGGACCGGTTTTCCCGGTAATCCGTATTTGCT (site CAATTCGCTAG)”, “CAATTCGCATGGACCGGTTTTCCCGGTAATCCGTATTTGCT (site CAATTCTCTAG)” is lower in “recombinant UMI read abundance (log10)” value: 0.564 for the first, 0 for the second.

Going from “CAATTCTCATGGACCGGTTTTCCCGGTAATCCGTATTTGAA (site CAATACTCTTT)” to “CAATTCTCATGGACCGGTTTTCCCGGTAATCCGTATTTGAA (site CAATCCTCTTT)”, the “recombinant UMI read abundance (log10)” value rises from 0.00453 to 0.327.

Going from “CAATTCTCATGGACCGGTTTTCCCGGTAATCCGTATTTGAA (site CAATGCTCTTT)” to “CAATTCTCATGGACCGGTTTTCCCGGTAATCCGTATTTGAA (site CAATTCTCTTT)”, the “recombinant UMI read abundance (log10)” value rises from 0.0109 to 2.5.

Going from “CACAACGCATGGACCGGTTTTCCCGGTAATCCGTATTTGCA (site CACAACGCTTG)” to “CACACCCCATGGACCGGTTTTCCCGGTAATCCGTATTTGCC (site CACACCCCTGG)”, the “recombinant UMI read abundance (log10)” value falls from 2.49 to 1.91.

Compared with “CACACCTCATGGACCGGTTTTCCCGGTAATCCGTATTTGCC (site CACACCTCTGG)”, “CACACCTCATGGACCGGTTTTCCCGGTAATCCGTATTTGCC (site CACCCCTCTGG)” is lower in “recombinant UMI read abundance (log10)” value: 2.87 for the first, 1.27 for the second.

Compared with “CACACCTCATGGACCGGTTTTCCCGGTAATCCGTATTTGCC (site CACGCCTCTGG)”, “CACACCTCATGGACCGGTTTTCCCGGTAATCCGTATTTGCC (site CACTCCTCTGG)” is higher in “recombinant UMI read abundance (log10)” value: 0 for the first, 1.97 for the second.

Going from “CACAGATCATGGACCGGTTTTCCCGGTAATCCGTATTTGCT (site CACAGATCTAG)” to “CACAGCGCATGGACCGGTTTTCCCGGTAATCCGTATTTGTT (site CACAGCGCTAA)”, the “recombinant UMI read abundance (log10)” value falls from 2.32 to 1.99.

Going from “CACAGGTCATGGACCGGTTTTCCCGGTAATCCGTATTTGAT (site CACAGGTCTAT)” to “CACATGACATGGACCGGTTTTCCCGGTAATCCGTATTTGGA (site CACATGACTTC)”, the “recombinant UMI read abundance (log10)” value falls from 2.14 to 1.1.

Compared with “CACATGTCATGGACCGGTTTTCCCGGTAATCCGTATTTGCA (site CACATGTCTTG)”, “CACATTTCATGGACCGGTTTTCCCGGTAATCCGTATTTGAA (site CACATTTCTTT)” is lower in “recombinant UMI read abundance (log10)” value: 2.4 for the first, 0 for the second.

First: CACCACACATGGACCGGTTTTCCCGGTAATCCGTATTTGTA (site CACCACACTTA)
Second: CACCACACATGGACCGGTTTTCCCGGTAATCCGTATTTGTA (site CCCCACACTTA)
The “recombinant UMI read abundance (log10)” value of the first is higher: 2.13 for the first, 0.591 for the second.

“CACCACACATGGACCGGTTTTCCCGGTAATCCGTATTTGTA (site CGCCACACTTA)” and “CACCACACATGGACCGGTTTTCCCGGTAATCCGTATTTGTA (site CTCCACACTTA)” are within 0.2 log units of each other in “recombinant UMI read abundance (log10)” value: 0.29 for the first, 0.179 for the second.

Compared with “CACCCGACATGGACCGGTTTTCCCGGTAATCCGTATTTGTA (site CACCCGACTTA)”, “CACCCGTCATGGACCGGTTTTCCCGGTAATCCGTATTTGTT (site CACCCGTCTAA)” is higher in “recombinant UMI read abundance (log10)” value: 1.32 for the first, 2.2 for the second.

Going from “CACCGATCATGGACCGGTTTTCCCGGTAATCCGTATTTGCC (site CACCGATCTGG)” to “CACCTTACATGGACCGGTTTTCCCGGTAATCCGTATTTGCC (site CACCTTACTGG)”, the “recombinant UMI read abundance (log10)” value falls from 2.44 to 1.46.

Going from “CACGACACATGGACCGGTTTTCCCGGTAATCCGTATTTGTG (site CACGACACTCA)” to “CACGATTCATGGACCGGTTTTCCCGGTAATCCGTATTTGCC (site CACGATTCTGG)”, the “recombinant UMI read abundance (log10)” value rises from 1.41 to 2.11.

Compared with “CACGCAGCATGGACCGGTTTTCCCGGTAATCCGTATTTGCG (site CACGCAGCTCG)”, “CACGCGCCATGGACCGGTTTTCCCGGTAATCCGTATTTGTG (site CAAGCGCCTCA)” is lower in “recombinant UMI read abundance (log10)” value: 1.32 for the first, 0.00364 for the second.

“CACGCGCCATGGACCGGTTTTCCCGGTAATCCGTATTTGTG (site CACGCGCCTCA)” and “CACGCGCCATGGACCGGTTTTCCCGGTAATCCGTATTTGTG (site CAGGCGCCTCA)” are within 0.2 log units of each other in “recombinant UMI read abundance (log10)” value: 0.00403 for the first, 0.056 for the second.

First: CACGCGCCATGGACCGGTTTTCCCGGTAATCCGTATTTGTG (site CATGCGCCTCA)
Second: CACGCGTCATGGACCGGTTTTCCCGGTAATCCGTATTTGGG (site CACGCGTCTCC)
The “recombinant UMI read abundance (log10)” value of the first is lower: 0 for the first, 1.04 for the second.

“CACGGCCCATGGACCGGTTTTCCCGGTAATCCGTATTTGTT (site AACGGCCCTAA)” and “CACGGCCCATGGACCGGTTTTCCCGGTAATCCGTATTTGTT (site CAAGGCCCTAA)” are within 0.2 log units of each other in “recombinant UMI read abundance (log10)” value: 0.0126 for the first, 0.0138 for the second.

“CACGGCCCATGGACCGGTTTTCCCGGTAATCCGTATTTGTT (site CACAGCCCTAA)” and “CACGGCCCATGGACCGGTTTTCCCGGTAATCCGTATTTGTT (site CACCGCCCTAA)” are within 0.2 log units of each other in “recombinant UMI read abundance (log10)” value: 0.215 for the first, 0.0224 for the second.

Going from “CACGGCCCATGGACCGGTTTTCCCGGTAATCCGTATTTGTT (site CACGACCCTAA)” to “CACGGCCCATGGACCGGTTTTCCCGGTAATCCGTATTTGTT (site CACGCCCCTAA)”, the “recombinant UMI read abundance (log10)” value falls from 0.652 to 0.0151.

“CACGGCCCATGGACCGGTTTTCCCGGTAATCCGTATTTGTT (site CACGGACCTAA)” and “CACGGCCCATGGACCGGTTTTCCCGGTAATCCGTATTTGTT (site CACGGCACTAA)” are within 0.2 log units of each other in “recombinant UMI read abundance (log10)” value: 0.0168 for the first, 0.0172 for the second.

“CACGGCCCATGGACCGGTTTTCCCGGTAATCCGTATTTGTT (site CACGGCCCTAA)” and “CACGGCCCATGGACCGGTTTTCCCGGTAATCCGTATTTGTT (site CACGGCCCTAC)” are within 0.2 log units of each other in “recombinant UMI read abundance (log10)” value: 0.135 for the first, 0.017 for the second.

First: CACGGCCCATGGACCGGTTTTCCCGGTAATCCGTATTTGTT (site CACGGCCCTAG)
Second: CACGGCCCATGGACCGGTTTTCCCGGTAATCCGTATTTGTT (site CACGGCCCTAT)
The “recombinant UMI read abundance (log10)” value of the first is higher: 1.14 for the first, 0.437 for the second.

Going from “CACGGCCCATGGACCGGTTTTCCCGGTAATCCGTATTTGTT (site CACGGCCCTCA)” to “CACGGCCCATGGACCGGTTTTCCCGGTAATCCGTATTTGTT (site CACGGCCCTGA)”, the “recombinant UMI read abundance (log10)” value rises from 0.0268 to 1.16.

“CACGGCCCATGGACCGGTTTTCCCGGTAATCCGTATTTGTT (site CACGGCCCTTA)” and “CACGGCCCATGGACCGGTTTTCCCGGTAATCCGTATTTGTT (site CACGGCGCTAA)” are within 0.2 log units of each other in “recombinant UMI read abundance (log10)” value: 0.0328 for the first, 0.0318 for the second.

Going from “CACGGCCCATGGACCGGTTTTCCCGGTAATCCGTATTTGTT (site CACGGCTCTAA)” to “CACGGCCCATGGACCGGTTTTCCCGGTAATCCGTATTTGTT (site CACGGGCCTAA)”, the “recombinant UMI read abundance (log10)” value falls from 1.79 to 0.

In the case of “CACGGCCCATGGACCGGTTTTCCCGGTAATCCGTATTTGTT (site CACGGTCCTAA)”, the “recombinant UMI read abundance (log10)” value is reported as 0.311.
